Target: Leukotriene B4 receptor 1 (Homo sapiens, UniProt Q15722)
Experiment: IP-One assay (LTB4R), antagonist mode at up to 50 µM ( vs. 300 nM LTB4); call rule not given here
Type: functional
Parameters: compound concentration < 50 uM

Chain of Leukotriene B4 receptor 1 (Q15722 whole entry): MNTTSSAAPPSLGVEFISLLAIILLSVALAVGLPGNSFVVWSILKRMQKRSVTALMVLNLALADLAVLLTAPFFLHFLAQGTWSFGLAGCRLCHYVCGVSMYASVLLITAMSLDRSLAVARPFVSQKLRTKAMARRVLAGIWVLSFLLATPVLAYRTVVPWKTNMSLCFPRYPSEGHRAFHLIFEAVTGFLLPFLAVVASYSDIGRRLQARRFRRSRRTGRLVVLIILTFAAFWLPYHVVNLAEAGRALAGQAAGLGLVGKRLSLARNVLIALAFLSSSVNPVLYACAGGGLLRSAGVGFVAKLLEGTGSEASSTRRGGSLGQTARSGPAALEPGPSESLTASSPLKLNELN

EC50: > 50 µM (not active)
SMILES: CCCCC(=O)N1CC2(CCN(c3ccccc3-c3nnn[nH]3)CC2)C1
